Results reported in patent US20260001875A1, “AMINOPYRIMIDINYL DERIVATIVES FOR THE TREATMENT OF PARKINSON'S DISEASE” (UNIVERSITY OF DUNDEE, priority 2022, published 2026).

Experiments:
LRRK2 = LRRK2 (Mus musculus, UniProt Q5S006); assay: LRRK2 degradation in bone marrow-derived macrophages; assay type: cell-based
Source text: Bone marrow isolation and macrophage differentiation was modified from (Wells et al., 2004), employing L929 preconditioned medium as the source of M-CSF for differentiation. Briefly, scissors and forceps were used to dissect femurs and tibiae from adult mice, and muscle tissue was carefully removed from bones. Clean femurs and tibiae were placed in a tissue culture dish containing complete media. The ends of each bone were cut with scissors to expose bone marrow. Bone marrow was flushed with a 25-gauge needle attached to a 10 ml syringe containing complete media. Media containing bone marrow was passed through a 70 μm cell strainer and precursor cells were plated on non-tissue culture treated 10 cm bacteriological plates containing 10 ml complete media. This was marked as day 0 of isolation. On day three post-isolation, macrophages were topped up with 5 ml fresh complete media. On day seven post-isolation, macrophages were rinsed once with PBS and incubated with Versene for 5 minutes in a 37° C. 5% CO2 tissue culture incubator. Macrophages were detached with cell scrapers and were centrifuged at 1200 rpm for 5 minutes at room temperature. The Versene was aspirated and the remaining cell pellet was resuspended in complete media. The cell suspension was counted, and cells were seeded for experimental analysis in a 6-well format, in tissue culture treated dishes at a final cell density of one million cells per 6-well.
Culturing and passaging of adherent cell lines were carried out using aseptic technique in CL1 or CL2 (for PBMC isolation) biological safety cabinets. All cells were incubated in a 37° C. incubator with 5% CO2. Cell lines were regularly tested for mycoplasma contamination. For western blot assay, the cells were seeded in 6-well plates. […] The cell pellet was discarded, and supernatant was collected for analysis by quantitative immunoblotting. […] Protein concentrations of cell lysates were determined using the Bradford assay. […]

LRRK2^R1441C = LRRK2^R1441C (Mus musculus, UniProt Q5S006, R1441C); assay: Western blot LRRK2 degradation in LRRK2^R1441C MEFs; assay type: cell-based; details: 4 h treatment
Chain of LRRK2^R1441C (Q5S006 whole entry R1441C): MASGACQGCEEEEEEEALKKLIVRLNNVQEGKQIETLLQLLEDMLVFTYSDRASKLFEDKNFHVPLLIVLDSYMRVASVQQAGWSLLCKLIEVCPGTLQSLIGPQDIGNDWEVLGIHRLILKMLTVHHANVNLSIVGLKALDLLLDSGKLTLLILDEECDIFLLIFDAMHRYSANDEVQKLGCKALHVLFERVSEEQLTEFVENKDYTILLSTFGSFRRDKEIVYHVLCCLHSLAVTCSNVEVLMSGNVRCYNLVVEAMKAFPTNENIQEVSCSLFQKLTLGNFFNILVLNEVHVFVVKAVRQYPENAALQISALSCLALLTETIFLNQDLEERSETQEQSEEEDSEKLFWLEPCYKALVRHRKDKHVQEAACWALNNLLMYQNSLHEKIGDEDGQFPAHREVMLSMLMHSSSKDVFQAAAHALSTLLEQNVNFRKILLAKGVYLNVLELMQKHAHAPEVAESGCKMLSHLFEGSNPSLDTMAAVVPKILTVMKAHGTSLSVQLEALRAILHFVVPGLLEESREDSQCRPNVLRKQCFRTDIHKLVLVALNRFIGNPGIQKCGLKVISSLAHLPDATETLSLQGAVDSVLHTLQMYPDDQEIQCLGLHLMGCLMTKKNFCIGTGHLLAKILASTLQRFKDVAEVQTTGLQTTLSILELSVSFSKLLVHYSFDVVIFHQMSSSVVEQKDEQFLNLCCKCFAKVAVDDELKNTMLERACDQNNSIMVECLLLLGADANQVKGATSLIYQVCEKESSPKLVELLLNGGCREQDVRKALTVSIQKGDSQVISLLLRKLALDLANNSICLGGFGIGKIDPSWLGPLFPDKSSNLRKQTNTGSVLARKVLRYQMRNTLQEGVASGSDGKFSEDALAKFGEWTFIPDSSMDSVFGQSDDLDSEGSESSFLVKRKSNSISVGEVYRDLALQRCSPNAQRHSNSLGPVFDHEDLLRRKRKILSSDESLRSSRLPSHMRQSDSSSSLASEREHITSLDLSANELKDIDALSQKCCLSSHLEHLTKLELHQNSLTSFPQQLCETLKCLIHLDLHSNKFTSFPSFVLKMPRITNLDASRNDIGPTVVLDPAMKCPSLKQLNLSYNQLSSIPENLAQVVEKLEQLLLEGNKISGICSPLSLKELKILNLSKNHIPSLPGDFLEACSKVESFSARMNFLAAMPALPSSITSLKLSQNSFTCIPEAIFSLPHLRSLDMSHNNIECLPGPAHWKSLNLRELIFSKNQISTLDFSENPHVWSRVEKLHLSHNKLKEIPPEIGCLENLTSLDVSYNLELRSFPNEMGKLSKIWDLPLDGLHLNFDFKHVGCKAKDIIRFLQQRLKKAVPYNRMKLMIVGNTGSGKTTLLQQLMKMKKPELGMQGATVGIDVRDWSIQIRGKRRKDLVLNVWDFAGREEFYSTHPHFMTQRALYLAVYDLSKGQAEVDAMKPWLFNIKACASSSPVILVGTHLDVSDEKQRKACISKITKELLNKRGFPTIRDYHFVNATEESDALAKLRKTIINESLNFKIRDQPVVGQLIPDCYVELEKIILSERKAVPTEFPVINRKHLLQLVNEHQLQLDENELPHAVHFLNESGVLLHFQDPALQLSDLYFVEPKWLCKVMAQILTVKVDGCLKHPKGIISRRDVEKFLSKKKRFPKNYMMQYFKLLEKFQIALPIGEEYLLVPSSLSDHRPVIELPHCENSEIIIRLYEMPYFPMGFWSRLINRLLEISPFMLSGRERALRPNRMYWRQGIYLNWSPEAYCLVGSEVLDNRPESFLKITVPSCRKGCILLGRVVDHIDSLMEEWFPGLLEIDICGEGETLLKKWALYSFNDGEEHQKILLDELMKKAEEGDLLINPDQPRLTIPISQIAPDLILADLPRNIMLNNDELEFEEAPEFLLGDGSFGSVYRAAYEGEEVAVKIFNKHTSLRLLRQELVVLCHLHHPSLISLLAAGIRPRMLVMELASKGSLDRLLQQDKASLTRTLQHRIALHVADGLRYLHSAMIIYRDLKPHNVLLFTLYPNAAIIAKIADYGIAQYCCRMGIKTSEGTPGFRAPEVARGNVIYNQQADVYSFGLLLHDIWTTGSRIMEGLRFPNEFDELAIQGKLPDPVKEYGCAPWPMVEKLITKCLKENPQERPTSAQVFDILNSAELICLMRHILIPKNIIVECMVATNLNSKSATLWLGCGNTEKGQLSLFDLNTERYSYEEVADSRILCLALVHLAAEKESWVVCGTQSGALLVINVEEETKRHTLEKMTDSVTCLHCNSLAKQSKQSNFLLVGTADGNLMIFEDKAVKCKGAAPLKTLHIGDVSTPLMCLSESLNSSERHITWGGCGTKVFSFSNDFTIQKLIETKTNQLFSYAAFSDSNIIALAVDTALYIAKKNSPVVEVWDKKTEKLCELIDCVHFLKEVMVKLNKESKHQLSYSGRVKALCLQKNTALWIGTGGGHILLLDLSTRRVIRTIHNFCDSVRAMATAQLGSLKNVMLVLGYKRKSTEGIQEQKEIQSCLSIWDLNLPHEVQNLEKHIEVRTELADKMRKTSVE

Chain of LRRK2 (Q5S006 whole entry): as the sequence (Q5S006 whole entry R1441C) above, with C1441R counted along it

LRRK2 degradation in macrophages (in words) (LRRK2)	LRRK2^R1441C degradation (in words) (LRRK2^R1441C)	SMILES	LRRK2 protein level reduced in macrophages (LRRK2)	DC50 (LRRK2; dose response)	Dmax of LRRK2^R1441C degradation (LRRK2^R1441C; dose response)
		CNc1nc(Nc2ccc(C(=O)N3CCN(C[C@H]4CC[C@H](CSC(C)(C)[C@H](NC(=O)C5(F)CC5)C(=O)N5C[C@H](O)CC5C(=O)NCc5ccc(-c6scnc6C)cc5)CC4)CC3)cc2OC)ncc1Cl (stereo partly drawn) [XL01126, (2S,4R)-1-((R)-3-((((1R,4R)-4-((4-(4-((5-chloro-4-(methylamino)pyrimidin-2-yl)amino)-3-methoxybenzoyl)piperazin-1-yl)methyl)cyclohexyl)methyl)thio)-2-(1-fluorocyclopropane-1-carboxamido)-3-methylbutanoyl)-4-hydroxy-N-(4-(4-methylthiazol-5-yl)benzyl)pyrrolidine-2-carboxamide]	80-90%	55 nM	80-90%
cannot degrade LRRK2	cannot degrade LRRK2^R1441C	CNc1nc(Nc2ccc(C(=O)N3CCN(C[C@H]4CC[C@H](CSC(C)(C)[C@H](NC(=O)C5(F)CC5)C(=O)N5C[C@@H](O)CC5C(=O)NCc5ccc(-c6scnc6C)cc5)CC4)CC3)cc2OC)ncc1Cl (stereo partly drawn) [Cis-XL01126, (2S,4S)-1-((R)-3-((((1r,4R)-4-((4-(4-((5-chloro-4-(methylamino)pyrimidin-2-yl)amino)-3-methoxybenzoyl)piperazin-1-yl)methyl)cyclohexyl)methyl)thio)-2-(1-fluorocyclopropane-1-carboxamido)-3-methylbutanoyl)-4-hydroxy-N-(4-(4-methylthiazol-5-yl)benzyl)pyrrolidine-2-carboxamide]			
